# Data: US20210275657A1, “NEOANTIGENS AND USES THEREOF” (BioNTech US Inc., priority 2018, published 2021)
# Like-named read-outs stand apart in the source and are kept apart here. Where a SMILES comes first, the peptide text is derived from it. Where no end group is shown, it is not given here.
# Key:
# [1] = for Solubility in 0.5 mM SS in D5W w/ 4% DMSO: 0.5 mM sodium succinate in D5W; for Solubility in 0.5 mM SS in D5W w/ 4% DMSO / Solubility in […] SS in D5W w/o DMSO / Solubility in […] SS in D5W w/ 4% DMSO: no polyICLC; for Solubility in […] SS in D5W w/o DMSO / Solubility in Poly ICLC + 5 mM SS in D5W w/o DMSO / Solubility in Poly ICLC + […] SS in D5W w/o DMSO: no DMSO; for Solubility in […] SS in D5W w/ 4% DMSO: […] sodium succinate in D5W; for solubility: without DMSO; for solubility in low SS: lower SS concentration ([…] SS/D5W); for solubility in 5 mM SS: 5 mM SS (higher SS concentration) in D5W
# Protocol: All buffers were prepared daily. […] Peptides were weighed into 15 mL or 50 mL conical tubes using a Mettler Toledo XP105 Delta Mass analytical balance and the actual gross weight was recorded and used to determine how much DMSO to obtain 50 mg/mL. The calculation is shown below:
# DMSO (μL)=(Actual gross weight (mg)*264 μl)/(Target gross weight (mg)) Equation 4.
# The stock was then diluted to 2 mg/mLL (1 part DMSO stock, 24 parts buffer) in the appropriate formulation buffer.
# Peptides weights and percent content were calculated as described above and the appropriate buffer was added directly to the peptides. The target gross weight calculated using Eq. 3 and the volume of buffer used to obtain 2 mg/mL peptide was calculated using Equation 5.
# Buffer (ml)=(Actual gross weight (mg)*6.6 mL)/(Target gross weight (mg)) Equation 5.
# Peptides were further diluted 1:4 with buffer to obtain 0.4 mg/mL or, only when indicated, was buffer added directly to the dry peptide to obtain 0.4 mg/mL. In the latter case, Equation 6 to determine the appropriate volume to add.
# Buffer (ml)=(Actual gross weight (mg)*33 mL)/(Target gross weight (mg)) Equation 6.
# The peptides were dissolved by inverting the conical tubes and not by sonicating or vortexing them.
# To pool 5 peptides, equal volume from each 2 mg/mL stock was combined to obtain 0.4 mg/mL of each peptide. In the case of pools with less than 5 peptides, equal volumes of the peptides were combined then the solution was diluted with the appropriate buffer to obtain 0.4 mg/mL of each peptide. The pools were inverted 3-5 times to mix. The formulated peptides were transferred to glass vials to visualize solubility. Photographs were taken every two hours to note any changes in appearance.
# Pools were combined at a 3:1 ratio of peptide to polyICLC using 150 μL polyICLC with 450 μL peptide pool in a 2 mL glass vial. The solution was inverted 3-5 times to mix and photographs were taken every two hours for 6 hours to note any changes in appearance. All pH measurements were made using a Mettler Toledo inLab Micro pH meter, which was calibrated every day before use. 100 μL of the sample being analyzed was removed and added to a microcentrifuge tube to measure the pH. The sample was then discarded. Samples by UPLC-MS (Waters Acquity H-Class with an Acquity QDa mass spectrometer). A 2 μL injection of each sample was analyzed in duplicate using an 8 minute gradient from 10:90 solvent A:B to 50:50 solvent A:B (A:0.1% TFA/water, B: 0.1% TFA:acetonitrile).
# [2] = system: indicated HLA alleles; assay: Stability of mutant EGFR neopeptides with the HLA alleles; assay type: binding, human; conditions: EGFR_T790M
# Protocol: Multiple peptides containing neoepitopes in the table below were either expressed or loaded onto antigen presenting cells. Mass spectrometry was then performed and the affinity of the neoepitopes for indicated HLA alleles were determined, and the stability of the neoepitopes with the HLA alleles were determined.
# [3] = 0.4 mg/mL in […] SS, after 6 hours
compound,measurement,setting,value
GPPARVPAVPFDLHFCRSSIMKPKRD [Peptide 8],Solubility in 0.5 mM SS in D5W w/ 4% DMSO,[1]; 4% DMSO,Yes
same,Solubility in […] SS in D5W w/o DMSO,[1],Yes
same,Solubility in […] SS in D5W w/ 4% DMSO,[1]; 4% DMSO,Yes
same,Solubility in Poly ICLC + 0.5 mM SS in D5W w/ 4% DMSO,"[1]; with polyICLC, 0.5 mM SS in D5W, 4% DMSO",Yes
same,Solubility in Poly ICLC + 5 mM SS in D5W w/o DMSO,[1]; with polyICLC,Yes
same,Solubility in Poly ICLC + […] SS in D5W w/ 4% DMSO,"[1]; with polyICLC, 4% DMSO",Yes
same,Solubility in Poly ICLC + […] SS in D5W w/o DMSO,[1]; with polyICLC,Yes
CC[C@H](C)[C@H](NC(=O)[C@H](CCCCN)NC(=O)[C@H](CO)NC(=O)[C@@H](N)CCC(=O)O)C(=O)N[C@@H](CCSC)C(=O)N[C@@H](Cc1ccccc1)C(=O)N[C@@H](C)C(=O)N[C@H](C(=O)N[C@@H](CC(C)C)C(=O)N[C@@H](CCC(N)=O)C(=O)N[C@@H](CCCNC(=N)N)C(=O)N[C@@H](CO)C(=O)N[C@@H](CO)C(=O)N[C@@H](CC(C)C)C(=O)O)[C@@H](C)O [Peptide L11i],solubility,"[1]; 0.4 mg/mL, D5W with all SS concentrations tested",soluble
same,solubility,"[1]; 2 mg/mL in the higher SS concentration, D5W",Some precipitation
same,Solubility in […] SS in D5W w/o DMSO,[1],Yes
same,solubility in low SS,[1],soluble
same,Solubility in Poly ICLC + […] SS in D5W w/o DMSO,[1]; with polyICLC,Yes
KPKRDGYMFLKAESKIMFATLQR [Peptide 10],Solubility in […] SS in D5W w/ 4% DMSO,[1]; 4% DMSO,Yes
same,Solubility in Poly ICLC + 5 mM SS in D5W w/ 4% DMSO,"[1]; with polyICLC, 4% DMSO",No
same,Solubility in Poly ICLC + […] SS in D5W w/ 4% DMSO,"[1]; with polyICLC, 4% DMSO",No
CSCC[C@H](N)C(=O)N[C@@H](Cc1ccccc1)C(=O)N[C@@H](C)C(=O)N[C@H](C(=O)N[C@@H](CC(C)C)C(=O)N[C@@H](CCC(N)=O)C(=O)N[C@@H](CCCNC(=N)N)C(=O)N[C@@H](CO)C(=O)N[C@@H](CO)C(=O)N[C@@H](CC(C)C)C(=O)N[C@@H](Cc1c[nH]c2ccccc12)C(=O)N[C@@H](CS)C(=O)N[C@@H](CC(C)C)C(=O)N[C@@H](CS)C(=O)N[C@@H](CO)C(=O)N[C@@H](CC(N)=O)C(=O)N[C@@H](Cc1c[nH]cn1)C(=O)O)[C@@H](C)O [Peptide 12b] (H-MFATLQRSSLWCLCSNH-OH),Solubility in 0.5 mM SS in D5W w/ 4% DMSO,[1]; 4% DMSO,Yes
same,Solubility in […] SS in D5W w/ 4% DMSO,[1]; 4% DMSO,Yes
same,Solubility in Poly ICLC + […] SS in D5W w/ 4% DMSO,"[1]; with polyICLC, 4% DMSO",No
CC[C@H](C)[C@H](NC(=O)[C@H](CCCCN)NC(=O)[C@H](CO)NC(=O)[C@H](CCC(=O)O)NC(=O)[C@H](C)NC(=O)[C@H](CCCCN)NC(=O)[C@H](CC(C)C)NC(=O)[C@H](Cc1ccccc1)NC(=O)[C@H](CCSC)NC(=O)[C@H](Cc1ccc(O)cc1)NC(=O)CNC(=O)[C@H](CC(=O)O)NC(=O)[C@H](CCCNC(=N)N)NC(=O)[C@H](CCCCN)NC(=O)[C@@H]1CCCN1C(=O)[C@@H](N)CCCCN)C(=O)N[C@@H](CCSC)C(=O)N[C@@H](Cc1ccccc1)C(=O)N[C@@H](C)C(=O)N[C@H](C(=O)N[C@@H](CC(C)C)C(=O)N[C@@H](CCC(N)=O)C(=O)N[C@@H](CCCNC(=N)N)C(=O)N[C@@H](CO)C(=O)N[C@@H](CO)C(=O)N[C@@H](CC(C)C)C(=O)N[C@@H](Cc1c[nH]c2ccccc12)C(=O)N[C@@H](CS)C(=O)N[C@@H](CC(C)C)C(=O)N[C@@H](CS)C(=O)N[C@@H](CO)C(=O)N[C@@H](CC(N)=O)C(=O)N[C@@H](Cc1c[nH]cn1)C(=O)O)[C@@H](C)O [Peptide L15] (H-KPKRDGYMFLKAESKIMFATLQRSSLWCLCSNH-OH; N-terminus and C-terminus assumed),solubility,[1]; [3],soluble
same,solubility in 5 mM SS,[1],not soluble
same,Solubility in […] SS in D5W w/o DMSO,[1],Yes
same,solubility in low SS,[1],soluble
same,Solubility in Poly ICLC + […] SS in D5W w/o DMSO,[1]; with polyICLC,Yes
KPKRDGYMFLKAESKI [Peptide L10c],solubility,[1]; [3],soluble
same,solubility in 5 mM SS,[1],soluble
same,solubility,"[1]; 5 mM SS, after 6 hours",soluble
same,Solubility in […] SS in D5W w/o DMSO,[1],Yes
same,Solubility in […] SS in D5W w/ 4% DMSO,[1]; 4% DMSO,Yes
same,Solubility in Poly ICLC + 5 mM SS in D5W w/ 4% DMSO,"[1]; with polyICLC, 4% DMSO",Yes
same,Solubility in Poly ICLC + 5 mM SS in D5W w/o DMSO,[1]; with polyICLC,Yes
same,Solubility in Poly ICLC + […] SS in D5W w/o DMSO,[1]; with polyICLC,Yes
CSCC[C@H](NC(=O)[C@H](CC(C)C)NC(=O)[C@H](CCC(N)=O)NC(=O)[C@@H](N)CCSC)C(=O)N1CCC[C@H]1C(=O)N[C@@H](Cc1ccccc1)C(=O)NCC(=O)N[C@@H](CS)C(=O)N[C@@H](CC(C)C)C(=O)O,Stability (1/2 hr),[2]; HLA A02.01,0.3683 h
same,Stability (1/2 hr),[2]; HLA B07.02,0 h
same,Stability (1/2 hr),[2]; HLA B08.01,0 h
FLKAESKIMFATLQRS [Peptide L11f],solubility,[1]; [3],soluble
same,solubility in 5 mM SS,[1],not soluble
same,Solubility in […] SS in D5W w/o DMSO,[1],Yes
same,Solubility in […] SS in D5W w/ 4% DMSO,[1]; 4% DMSO,Yes
same,solubility in low SS,[1],soluble
same,Solubility in Poly ICLC + […] SS in D5W w/o DMSO,[1]; with polyICLC,Yes
KAESKIMFATLQRSSLWCL [Peptide 11d],Solubility in 0.5 mM SS in D5W w/ 4% DMSO,[1]; 4% DMSO,Yes
same,Solubility in […] SS in D5W w/o DMSO,[1],Yes
same,Solubility in […] SS in D5W w/ 4% DMSO,[1]; 4% DMSO,Yes
same,Solubility in Poly ICLC + […] SS in D5W w/o DMSO,[1]; with polyICLC,Yes
KPKRDGYMFLKAESKIMFAT [Peptide 10b],Solubility in 0.5 mM SS in D5W w/ 4% DMSO,[1]; 4% DMSO,Yes
same,Solubility in […] SS in D5W w/ 4% DMSO,[1]; 4% DMSO,Yes
same,Solubility in Poly ICLC + […] SS in D5W w/ 4% DMSO,"[1]; with polyICLC, 4% DMSO",No
DGYMFLKAESKIMFAT [Peptide L11e],Solubility in […] SS in D5W w/ 4% DMSO,[1]; 4% DMSO,No
GPPARVPAVPFDLHFCRSSIMKPKRD [Peptide L8],solubility,[1]; [3],soluble
same,solubility in 5 mM SS,[1],soluble
same,solubility,"[1]; 5 mM SS, after 6 hours",soluble
LHFCRSSIMKPKRDGYMFLKAESKI [Peptide L9],solubility,[1]; [3],soluble
same,solubility in 5 mM SS,[1],soluble
same,solubility,"[1]; 5 mM SS, after 6 hours",soluble
KAESKIMFATLQRSSLWCL [Peptide L11d],solubility,[1]; [3],soluble
CSCC[C@H](N)C(=O)N[C@@H](Cc1ccccc1)C(=O)N[C@@H](C)C(=O)N[C@H](C(=O)N[C@@H](CC(C)C)C(=O)N[C@@H](CCC(N)=O)C(=O)N[C@@H](CCCNC(=N)N)C(=O)N[C@@H](CO)C(=O)N[C@@H](CO)C(=O)N[C@@H](CC(C)C)C(=O)N[C@@H](Cc1c[nH]c2ccccc12)C(=O)N[C@@H](CS)C(=O)N[C@@H](CC(C)C)C(=O)N[C@@H](CS)C(=O)O)[C@@H](C)O [Peptide L12c],Solubility in […] SS in D5W w/ 4% DMSO,[1]; 4% DMSO,No
CC(C)C[C@H](NC(=O)[C@H](CS)NC(=O)[C@H](Cc1c[nH]c2ccccc12)NC(=O)[C@H](CC(C)C)NC(=O)[C@H](CO)NC(=O)[C@H](CO)NC(=O)[C@H](CCCNC(=N)N)NC(=O)[C@H](CCC(N)=O)NC(=O)[C@H](CC(C)C)NC(=O)[C@@H](N)[C@@H](C)O)C(=O)N[C@@H](CS)C(=O)N[C@@H](CO)C(=O)N[C@@H](CC(N)=O)C(=O)N[C@@H](Cc1c[nH]cn1)C(=O)O [Peptide L12d] (H-TLQRSSLWCLCSNH-OH),solubility,"[1]; 5 mM SS, after 6 hours",soluble
same,Solubility in […] SS in D5W w/o DMSO,[1],Yes
same,Solubility in […] SS in D5W w/ 4% DMSO,[1]; 4% DMSO,Yes
same,Solubility in Poly ICLC + 5 mM SS in D5W w/ 4% DMSO,"[1]; with polyICLC, 4% DMSO",Yes
same,Solubility in Poly ICLC + […] SS in D5W w/ 4% DMSO,"[1]; with polyICLC, 4% DMSO",Yes
CC[C@H](C)[C@H](NC(=O)[C@H](CC(C)C)NC(=O)[C@H](CCC(N)=O)NC(=O)[C@@H](N)C(C)C)C(=O)N[C@@H](CCSC)C(=O)N[C@@H](CCC(N)=O)C(=O)N[C@@H](CC(C)C)C(=O)N[C@@H](CCSC)C(=O)N1CCC[C@H]1C(=O)N[C@@H](Cc1ccccc1)C(=O)O,Stability (1/2 hr),[2]; HLA A02.01,0 h
same,Stability (1/2 hr),[2]; HLA A24.02,0 h
same,Stability (1/2 hr),[2]; HLA B08.01,0 h
FLKAESKIMFATLQRSSLWCL [Peptide 11],Solubility in Poly ICLC + […] SS in D5W w/ 4% DMSO,"[1]; with polyICLC, 4% DMSO",No
CC[C@H](C)[C@H](NC(=O)[C@H](CC(C)C)NC(=O)[C@@H](N)CCC(N)=O)C(=O)N[C@@H](CCSC)C(=O)N[C@@H](CCC(N)=O)C(=O)N[C@@H](CC(C)C)C(=O)N[C@@H](CCSC)C(=O)N1CCC[C@H]1C(=O)N[C@@H](Cc1ccccc1)C(=O)O,Stability (1/2 hr),[2]; HLA A02.01,0.3407 h
same,Stability (1/2 hr),[2]; HLA A24.02,0.3687 h
same,Stability (1/2 hr),[2]; HLA B08.01,0 h
CSCC[C@H](NC(=O)[C@H](CC(C)C)NC(=O)[C@H](CCC(N)=O)NC(=O)[C@@H](N)CCSC)C(=O)N1CCC[C@H]1C(=O)N[C@@H](Cc1ccccc1)C(=O)NCC(=O)N[C@@H](CS)C(=O)N[C@@H](CC(C)C)C(=O)N[C@@H](CC(C)C)C(=O)O,Stability (1/2 hr),[2]; HLA A02.01,0.3811 h
same,Stability (1/2 hr),[2]; HLA A24.02,0 h
same,Stability (1/2 hr),[2]; HLA B08.01,0 h
YMFLKAESKIMFATLQRSS [Peptide 11c],Solubility in 0.5 mM SS in D5W w/ 4% DMSO,[1]; 4% DMSO,Yes
same,Solubility in […] SS in D5W w/ 4% DMSO,[1]; 4% DMSO,Yes
same,Solubility in Poly ICLC + […] SS in D5W w/ 4% DMSO,"[1]; with polyICLC, 4% DMSO",No
LHFCRSSIMKPKRDGYMFLKAESKI [Peptide 9],Solubility in 0.5 mM SS in D5W w/ 4% DMSO,[1]; 4% DMSO,Yes
same,Solubility in […] SS in D5W w/o DMSO,[1],Yes
same,Solubility in […] SS in D5W w/ 4% DMSO,[1]; 4% DMSO,Yes
same,Solubility in Poly ICLC + 5 mM SS in D5W w/o DMSO,[1]; with polyICLC,Yes
same,Solubility in Poly ICLC + […] SS in D5W w/ 4% DMSO,"[1]; with polyICLC, 4% DMSO",Yes
ESKIMFATLQRSSLWC [Peptide L11g],Solubility in […] SS in D5W w/ 4% DMSO,[1]; 4% DMSO,Yes
same,Solubility in Poly ICLC + […] SS in D5W w/ 4% DMSO,"[1]; with polyICLC, 4% DMSO",No
